Starred links: 1 amine or outer side, 2 acyl side, 3 side chain; linkers in the order of their positions; H or OH if unused. Non-standard residues stand in square brackets, D forms with d. Residues, ends and D or L forms follow the SMILES beside them. ξ: configuration not given here. X1 = Cn1c(=NC(N)=O)ccn(C2SC(C(O)C(N[*:1])C(=O)[*:2])C(O)C2O)c1=O; Orn(N5-OH,N5-Ac) = CC(=O)N(O)CCC[C@H](N)C(=O)O; ξT = CC(O)C(N)C(=O)O; ξA = CC(N)C(=O)O
Key:
Assay in all cases: Hole test, inhibiting areola diameter, medium DST agar
Assay type in all cases: cell-based
Prot. 1017 = details: 1000 ug/ml
Text: (§1) Activity against the germs listed below is found in vitro, on the basis of the diameter of the inhibiting areola.

E. coli 14 = system: E. coli 14
Text: as §1

E. coli T 7 = system: E. coli T 7; set-up: unit not given here
Text: as §1

Staph. 133 = details: 1000 ug/ml
Text: as §1

Klebs. 57 USA = details: 100 ug/ml
Text: as §1

Row | SMILES | Inhibiting areola diameter Prot. 1017 (Prot. 1017) | Inhibiting areola diameter E. coli 14 (E. coli 14; 1000 ug/ml) | Inhibiting areola diameter E. coli T 7 (E. coli T 7; 1000 ug/ml) | Inhibiting areola diameter E. coli 14 (E. coli 14; 10 ug/ml) | Inhibiting areola diameter E. coli 14 (E. coli 14; 100 ug/ml) | Inhibiting areola diameter E. coli T 7 (E. coli T 7; 10 ug/ml) | Inhibiting areola diameter E. coli T 7 (E. coli T 7; 100 ug/ml) | Inhibiting areola diameter Staph. 133 (Staph. 133) | Inhibiting areola diameter Klebs. 57 USA (Klebs. 57 USA)
1 | CC(=O)N(O)CCC[C@H](NC(=O)[C@H](CCCN(O)C(C)=O)NC(=O)[C@@H](N)CCCN(O)C(C)=O)C(=O)NC(C(=O)O)C(O)C1SC(n2ccc(=NC(N)=O)n(C)c2=O)C(O)C1O (some centres unmarked) [Compound 13] | 20 | 20 | 19 |  |  |  |  |  | 
2 | CC(=O)N(O)CCC[C@H](NC(=O)[C@H](CCCN(O)C(C)=O)NC(=O)[C@@H](N)CCCN(O)C(C)=O)C(=O)NC(C)C(=O)NC(C(=O)O)C(O)C1SC(n2ccc(=NC(N)=O)n(C)c2=O)C(O)C1O (some centres unmarked) [Compound 9, Peptidyl-nucleoside] (H-[Orn(N5-OH,N5-Ac)][Orn(N5-OH,N5-Ac)][Orn(N5-OH,N5-Ac)][ξA][X1]-OH) |  |  |  | 30 | 34 | 28 | 34 |  | 
3 | CC(=O)N(O)CCC[C@H](NC(=O)[C@H](CCCN(O)C(C)=O)NC(=O)[C@@H](N)CCCN(O)C(C)=O)C(=O)NC(C(=O)O)C(O)C1SC(n2ccc(=O)n(C)c2=O)C(O)C1O (some centres unmarked) [Compound 24] | 18 | 18 |  |  |  |  | 18 |  | 
4 | CC(=O)N(O)CCC[C@H](NC(=O)[C@H](CCCN(O)C(C)=O)NC(=O)[C@@H](N)CCCN(O)C(C)=O)C(=O)NC(C(=O)NC(C(=O)O)C(O)C1SC(n2ccc(=NC(N)=O)n(C)c2=O)C(O)C1O)C(C)O (some centres unmarked) [Compound 20] (H-[Orn(N5-OH,N5-Ac)][Orn(N5-OH,N5-Ac)][Orn(N5-OH,N5-Ac)][ξT][X1]-OH) | 17 | 14 | 15 |  | 13 |  | 14 | 25 | 
5 | CC(=O)N(O)CCC[C@H](N)C(=O)NC(C(=O)O)C(O)C1SC(n2ccc(=NC(N)=O)n(C)c2=O)C(O)C1O (some centres unmarked) [Compound 11] |  |  |  |  | 13 | 13 | 18 |  | 18
